Test results taken from patent US11969428B2, “Methods and pharmaceutical compositions for treating lymphoid malignancy” (priority 2011, dated 2024).

Tests used:
Experiment in all cases: Ambit KinomeScan screening
Format in all cases: binding
Details in all cases: CAL-130 10 μM
[1] = biological target: T1, ACVR1 (Homo sapiens, UniProt Q04771)
T1 construct: unspecified tag ("tagged kinases"); purchased Ambit (KinomeScan screening)
Outline: (§1)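 CAL-130 was tested at 10 μM for its ability to block tagged kinases from binding an immobilized bait ligand across a 353-kinase panel. Values are expressed as percent of control binding, with lower numbers meaning stronger interaction and values above 35% classed as no hit.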

[2] = biological target: T2, AKT2 (Homo sapiens, UniProt P31751)
T2 construct: purchased Ambit (KinomeScan screening)
Outline: as §1

[3] = biological target: T3, BLK (Homo sapiens, UniProt P51451)
T3 construct: purchased Ambit (KinomeScan screening service)
Outline: as §1

[4] = biological target: T4, CAMK1G (Homo sapiens, UniProt Q96NX5)
T4 construct: unspecified tag ("tagged kinases"); purchased Ambit (KinomeScan screening)
Outline: as §1

[5] = biological target: T5, CLK3 (Homo sapiens, UniProt P49761)
T5 construct: purchased Ambit (KinomeScan screening service)
Outline: as §1

[6] = biological target: T6, CLK4 (Homo sapiens, UniProt Q9HAZ1)
T6 construct: purchased Ambit (KinomeScan screening service)
Outline: as §1

[7] = biological target: T7, DAPK3 (Homo sapiens, UniProt O43293)
T7 construct: unspecified tag ("tagged kinases"); purchased Ambit (KinomeScan screening service)
Outline: as §1

[8] = biological target: T8, DCAMKL3 (Homo sapiens, UniProt Q9C098)
T8 construct: unspecified tag ("tagged kinases"); purchased Ambit (KinomeScan screening service)
Outline: as §1

[9] = biological target: T9, DMPK (Homo sapiens, UniProt Q09013)
T9 construct: unspecified tag ("tagged kinases"); purchased Ambit (KinomeScan screening service)
Outline: as §1

[10] = biological target: T10, EGFR(G719C) (Homo sapiens, UniProt P00533, G719C)
T10 construct: unspecified tag; purchased Ambit (KinomeScan screening service)
Outline: as §1

[11] = biological target: T11, EPHA2 (Homo sapiens, UniProt P29317)
T11 construct: purchased Ambit (KinomeScan screening service)
Outline: as §1

[12] = biological target: T12, EPHA3 (Homo sapiens, UniProt P29320)
T12 construct: purchased Ambit (KinomeScan screening service)
Outline: as §1

[13] = biological target: T13, EPHA4 (Homo sapiens, UniProt P54764)
T13 construct: purchased Ambit (KinomeScan screening service)
Outline: as §1

[14] = biological target: T14, ERK2 (Homo sapiens, UniProt P28482)
T14 construct: unspecified tag ("tagged kinases"); purchased Ambit (KinomeScan screening service)
Outline: as §1

[15] = biological target: T15, ERN1 (Homo sapiens, UniProt O75460)
T15 construct: unspecified tag ("tagged kinases"); purchased Ambit (KinomeScan screening service)
Outline: as §1

[16] = biological target: T16, FLT3(K663Q) (Homo sapiens, UniProt P36888, K663Q)
T16 construct: unspecified tag; purchased Ambit (KinomeScan screening service)
Outline: as §1

[17] = biological target: T17, GSK3B (Homo sapiens, UniProt P49841)
T17 construct: unspecified tag ('tagged kinases'); purchased Ambit (KinomeScan screening service)
Outline: as §1

[18] = biological target: T18, HCK (Homo sapiens, UniProt P08631)
T18 construct: unspecified tag ('tagged kinases'); purchased Ambit (KinomeScan screening service)
Outline: as §1

[19] = biological target: T19, HIPK1 (Homo sapiens, UniProt Q86Z02)
T19 construct: unspecified tag ('tagged kinases'); purchased Ambit (KinomeScan screening service)
Outline: as §1

[20] = biological target: T20, IGF1R (Homo sapiens, UniProt P08069)
T20 construct: Ambit (KinomeScan screening)
Outline: as §1

[21] = biological target: T21, IRAK1 (Homo sapiens, UniProt P51617)
T21 construct: Ambit (KinomeScan screening)
Outline: as §1

[22] = biological target: T22, ITK (Homo sapiens, UniProt Q08881)
T22 construct: purchased Ambit (KinomeScan screening)
Outline: as §1

[23] = biological target: T23, JAK1(JH2domain) (Homo sapiens, UniProt P23458)
T23 construct: JAK1(JH2domain); purchased Ambit (KinomeScan screening)
Outline: as §1

[24] = biological target: T24, LIMK2 (Homo sapiens, UniProt P53671)
T24 construct: unspecified tag ('tagged kinases'); purchased Ambit (KinomeScan screening service)
Outline: as §1

[25] = biological target: T25, MRCKA (Homo sapiens, UniProt Q5VT25)
T25 construct: unspecified tag ('tagged kinases'); purchased Ambit (KinomeScan screening)
Outline: as §1

[26] = biological target: T26, MST2 (Homo sapiens, UniProt Q13188)
T26 construct: unspecified tag ('tagged kinases'); purchased Ambit (KinomeScan screening)
Outline: as §1

[27] = biological target: T27, PDGFRA (Homo sapiens, UniProt P16234)
T27 construct: unspecified tag ('tagged kinases'); purchased Ambit (KinomeScan screening)
Outline: as §1

[28] = biological target: T28, RIPK1 (Homo sapiens, UniProt Q13546)
T28 construct: unspecified tag (tagged kinase); purchased Ambit (KinomeScan screening)
Outline: as §1

[29] = biological target: T29, ROCK2 (Homo sapiens, UniProt O75116)
T29 construct: unspecified tag (tagged kinase); purchased Ambit (KinomeScan screening)
Outline: as §1

[30] = biological target: T30, SRPK2 (Homo sapiens, UniProt P78362)
T30 construct: purchased Ambit (KinomeScan screening service)
Outline: as §1

[31] = biological target: T31, SYK (Homo sapiens, UniProt P43405)
T31 construct: tag (kind not specified); purchased Ambit (KinomeScan screening service)
Outline: as §1

[32] = biological target: T32, TAO1 (Homo sapiens, UniProt Q9UL54)
T32 construct: tag (kind not specified); purchased Ambit (KinomeScan screening service)
Outline: as §1

[33] = biological target: T33, TGFBR1 (Homo sapiens, UniProt P36897)
T33 construct: unspecified tag (tagged kinase); purchased Ambit (KinomeScan screening)
Outline: as §1

[34] = biological target: T34, TIE2 (Homo sapiens, UniProt Q02763)
T34 construct: unspecified tag (tagged kinase); purchased Ambit (KinomeScan screening)
Outline: as §1

[35] = biological target: T35, TNK1 (Homo sapiens, UniProt Q13470)
T35 construct: unspecified tag (tagged kinase); purchased Ambit (KinomeScan screening)
Outline: as §1

[36] = biological target: T36, ULK1 (Homo sapiens, UniProt O75385)
T36 construct: tag, kind not specified; purchased Ambit (KinomeScan screening service)
Outline: as §1

Measured: Percent of Control Binding

T1 sequence (Q04771 21-509): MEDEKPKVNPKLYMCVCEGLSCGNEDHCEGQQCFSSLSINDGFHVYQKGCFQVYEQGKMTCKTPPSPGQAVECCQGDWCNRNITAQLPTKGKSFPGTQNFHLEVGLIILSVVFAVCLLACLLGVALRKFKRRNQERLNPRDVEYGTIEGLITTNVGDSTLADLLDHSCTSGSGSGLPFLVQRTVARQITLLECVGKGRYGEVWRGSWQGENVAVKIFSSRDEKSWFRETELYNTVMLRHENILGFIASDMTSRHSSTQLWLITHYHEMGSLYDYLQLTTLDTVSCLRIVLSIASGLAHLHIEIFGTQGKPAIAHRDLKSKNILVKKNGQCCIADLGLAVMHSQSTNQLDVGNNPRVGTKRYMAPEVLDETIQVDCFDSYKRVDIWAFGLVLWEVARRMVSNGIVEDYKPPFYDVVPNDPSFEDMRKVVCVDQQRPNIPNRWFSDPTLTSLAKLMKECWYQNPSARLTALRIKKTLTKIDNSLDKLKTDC
T21 sequence (P51617 whole entry): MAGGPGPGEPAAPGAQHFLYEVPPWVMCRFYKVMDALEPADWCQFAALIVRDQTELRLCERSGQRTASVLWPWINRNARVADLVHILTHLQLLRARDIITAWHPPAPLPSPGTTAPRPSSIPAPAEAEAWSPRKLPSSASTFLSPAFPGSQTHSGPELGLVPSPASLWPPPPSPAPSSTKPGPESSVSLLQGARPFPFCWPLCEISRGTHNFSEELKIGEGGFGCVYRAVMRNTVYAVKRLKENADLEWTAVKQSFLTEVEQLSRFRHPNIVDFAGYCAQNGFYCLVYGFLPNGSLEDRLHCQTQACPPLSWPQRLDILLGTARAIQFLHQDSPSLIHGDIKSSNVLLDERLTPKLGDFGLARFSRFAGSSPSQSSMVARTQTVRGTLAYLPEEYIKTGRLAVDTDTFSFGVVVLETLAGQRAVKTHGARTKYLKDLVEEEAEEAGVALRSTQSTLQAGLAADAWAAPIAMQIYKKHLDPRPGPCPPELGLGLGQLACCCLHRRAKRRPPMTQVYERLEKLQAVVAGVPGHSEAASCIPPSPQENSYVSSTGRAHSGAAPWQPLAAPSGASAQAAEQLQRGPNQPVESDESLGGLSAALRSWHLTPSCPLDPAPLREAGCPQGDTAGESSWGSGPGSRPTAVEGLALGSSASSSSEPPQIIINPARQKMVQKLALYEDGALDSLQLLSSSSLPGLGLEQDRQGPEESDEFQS
T2 sequence (P31751 whole entry): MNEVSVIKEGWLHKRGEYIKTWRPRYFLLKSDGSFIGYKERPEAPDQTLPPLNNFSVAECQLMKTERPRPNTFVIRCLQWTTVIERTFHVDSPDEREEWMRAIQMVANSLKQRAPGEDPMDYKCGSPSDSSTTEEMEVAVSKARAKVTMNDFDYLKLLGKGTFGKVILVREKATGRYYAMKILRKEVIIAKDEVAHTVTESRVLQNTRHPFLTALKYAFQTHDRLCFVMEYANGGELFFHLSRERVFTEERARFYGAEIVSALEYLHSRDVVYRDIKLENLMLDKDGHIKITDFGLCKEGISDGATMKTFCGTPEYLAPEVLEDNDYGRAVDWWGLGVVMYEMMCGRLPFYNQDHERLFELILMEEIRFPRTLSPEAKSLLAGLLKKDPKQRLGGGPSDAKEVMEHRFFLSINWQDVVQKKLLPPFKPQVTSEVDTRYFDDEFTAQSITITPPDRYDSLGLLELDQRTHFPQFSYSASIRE
T14 sequence (P28482 whole entry): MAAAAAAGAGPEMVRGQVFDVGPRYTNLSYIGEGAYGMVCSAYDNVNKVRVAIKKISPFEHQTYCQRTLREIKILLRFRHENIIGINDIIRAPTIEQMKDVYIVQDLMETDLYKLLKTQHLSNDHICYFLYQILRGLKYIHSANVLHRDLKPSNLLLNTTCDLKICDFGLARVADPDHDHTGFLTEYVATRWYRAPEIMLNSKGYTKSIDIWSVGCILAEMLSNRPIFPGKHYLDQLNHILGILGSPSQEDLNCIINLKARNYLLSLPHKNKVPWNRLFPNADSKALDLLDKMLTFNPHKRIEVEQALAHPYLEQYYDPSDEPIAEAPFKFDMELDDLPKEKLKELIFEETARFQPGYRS
T25 sequence (Q5VT25 whole entry): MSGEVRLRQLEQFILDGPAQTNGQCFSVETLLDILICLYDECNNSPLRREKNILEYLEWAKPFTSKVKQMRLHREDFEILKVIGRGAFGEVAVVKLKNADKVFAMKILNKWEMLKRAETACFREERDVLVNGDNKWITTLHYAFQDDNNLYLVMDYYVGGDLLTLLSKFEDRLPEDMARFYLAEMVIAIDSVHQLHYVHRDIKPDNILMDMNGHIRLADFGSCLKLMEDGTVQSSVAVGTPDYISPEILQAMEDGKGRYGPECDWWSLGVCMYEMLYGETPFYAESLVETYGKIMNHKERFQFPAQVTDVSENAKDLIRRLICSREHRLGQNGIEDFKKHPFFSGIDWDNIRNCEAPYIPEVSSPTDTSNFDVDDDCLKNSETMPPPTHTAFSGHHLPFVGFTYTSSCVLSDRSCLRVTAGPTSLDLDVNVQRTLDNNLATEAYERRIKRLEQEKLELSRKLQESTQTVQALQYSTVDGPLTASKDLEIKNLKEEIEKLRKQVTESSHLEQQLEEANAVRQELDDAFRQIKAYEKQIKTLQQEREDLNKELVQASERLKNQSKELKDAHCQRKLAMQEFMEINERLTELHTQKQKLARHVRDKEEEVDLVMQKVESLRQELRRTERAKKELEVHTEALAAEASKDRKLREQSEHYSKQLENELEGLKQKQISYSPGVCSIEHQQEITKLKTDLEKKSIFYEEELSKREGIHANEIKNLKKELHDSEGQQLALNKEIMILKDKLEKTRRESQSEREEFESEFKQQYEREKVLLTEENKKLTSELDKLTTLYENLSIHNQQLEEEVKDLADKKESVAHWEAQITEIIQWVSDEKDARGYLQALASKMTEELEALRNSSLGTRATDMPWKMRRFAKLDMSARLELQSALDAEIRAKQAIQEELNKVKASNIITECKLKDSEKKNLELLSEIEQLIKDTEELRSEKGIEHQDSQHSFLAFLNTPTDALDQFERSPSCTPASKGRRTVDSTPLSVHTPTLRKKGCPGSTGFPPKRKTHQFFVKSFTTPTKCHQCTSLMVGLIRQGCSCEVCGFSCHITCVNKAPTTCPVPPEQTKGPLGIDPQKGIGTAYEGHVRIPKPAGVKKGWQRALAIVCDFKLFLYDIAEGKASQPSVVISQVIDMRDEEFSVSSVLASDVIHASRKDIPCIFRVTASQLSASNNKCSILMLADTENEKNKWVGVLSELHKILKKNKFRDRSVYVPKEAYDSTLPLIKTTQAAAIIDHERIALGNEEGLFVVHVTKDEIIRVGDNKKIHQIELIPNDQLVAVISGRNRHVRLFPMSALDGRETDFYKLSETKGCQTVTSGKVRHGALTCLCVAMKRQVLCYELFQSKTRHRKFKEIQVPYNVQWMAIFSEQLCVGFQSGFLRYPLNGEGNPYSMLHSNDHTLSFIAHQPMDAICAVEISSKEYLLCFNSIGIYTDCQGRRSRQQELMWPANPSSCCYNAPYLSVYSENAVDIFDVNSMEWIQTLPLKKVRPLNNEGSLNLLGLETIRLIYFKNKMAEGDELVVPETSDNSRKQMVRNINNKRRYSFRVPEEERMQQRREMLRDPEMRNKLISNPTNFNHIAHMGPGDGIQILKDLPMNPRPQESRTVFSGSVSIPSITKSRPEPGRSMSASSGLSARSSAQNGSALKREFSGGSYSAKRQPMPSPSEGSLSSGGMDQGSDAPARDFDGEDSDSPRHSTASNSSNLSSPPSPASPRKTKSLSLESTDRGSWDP
T7 sequence (O43293 whole entry): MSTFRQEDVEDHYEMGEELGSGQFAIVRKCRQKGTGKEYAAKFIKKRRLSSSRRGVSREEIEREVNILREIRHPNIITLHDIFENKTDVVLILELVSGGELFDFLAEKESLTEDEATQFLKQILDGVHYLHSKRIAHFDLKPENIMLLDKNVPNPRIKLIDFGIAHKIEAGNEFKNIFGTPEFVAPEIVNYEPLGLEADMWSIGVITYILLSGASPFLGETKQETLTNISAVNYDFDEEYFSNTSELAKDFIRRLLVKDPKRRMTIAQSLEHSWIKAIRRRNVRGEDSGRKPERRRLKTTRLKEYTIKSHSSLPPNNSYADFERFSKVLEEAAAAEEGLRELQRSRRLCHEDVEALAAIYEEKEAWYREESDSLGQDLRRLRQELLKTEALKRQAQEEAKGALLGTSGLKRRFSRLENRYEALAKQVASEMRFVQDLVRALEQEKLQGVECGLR
T6 sequence (Q9HAZ1 whole entry): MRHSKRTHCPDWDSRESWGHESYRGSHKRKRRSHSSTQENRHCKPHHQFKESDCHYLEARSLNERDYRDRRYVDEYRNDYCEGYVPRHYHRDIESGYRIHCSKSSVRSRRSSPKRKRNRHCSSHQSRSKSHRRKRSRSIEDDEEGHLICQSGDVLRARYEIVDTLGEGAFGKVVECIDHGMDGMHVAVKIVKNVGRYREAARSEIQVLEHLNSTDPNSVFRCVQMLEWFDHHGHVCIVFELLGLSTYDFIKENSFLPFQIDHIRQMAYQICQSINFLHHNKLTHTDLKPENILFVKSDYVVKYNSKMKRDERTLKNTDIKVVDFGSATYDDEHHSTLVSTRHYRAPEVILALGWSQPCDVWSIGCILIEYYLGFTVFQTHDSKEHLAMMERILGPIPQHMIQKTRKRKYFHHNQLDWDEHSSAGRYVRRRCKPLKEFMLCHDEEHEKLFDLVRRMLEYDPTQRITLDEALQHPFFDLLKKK
T23 sequence (P23458 583-855 limits assumed): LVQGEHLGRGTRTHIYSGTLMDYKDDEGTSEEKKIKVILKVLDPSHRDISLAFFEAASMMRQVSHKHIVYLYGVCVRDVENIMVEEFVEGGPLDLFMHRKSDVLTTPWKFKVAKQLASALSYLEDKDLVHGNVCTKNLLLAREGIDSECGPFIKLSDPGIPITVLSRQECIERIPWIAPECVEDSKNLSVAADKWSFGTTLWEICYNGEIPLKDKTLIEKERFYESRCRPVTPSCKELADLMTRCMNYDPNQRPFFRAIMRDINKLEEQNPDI

Cc1ccccc1-n1c(C(C)Nc2nc(N)nc3nc[nH]c23)nc2cccc(C)c2c1=O (stereo not drawn) [CAL-130]
100%: all assays above
